Consider one compound from publication PMC8232704, “Hydrophobic Tagging-Mediated Degradation of Transcription Coactivator SRC-1” (International Journal of Molecular Sciences, 2021).

Each structure is given as a SMILES string. Bridge positions count the residues as written; N and C are the ends. Square brackets hold non-standard residues; d marks the D form. Peptide text beside a SMILES is read from it. N(1-adamantyl)Gly = O=C(O)CNC12CC3CC(CC(C3)C1)C2; Cha = N[C@@H](CC1CCCCC1)C(=O)O; S5 = C=CCCC[C@](C)(N)C(=O)O; PEG3 = NCCOCCOCCOCCC(=O)O

Data set [1] relates to E-cadherin mRNA in MDA-MB-231 cells. The experiment in a line: RT-qPCR of E-cadherin mRNA. Type of data set: cell-based, human. The note with it: 18 h, RT-qPCR normalized to 18S. The procedure: (§1) Quantitative real-time PCR was performed for CSF-1, E-cadherin, and 18S (as a reference gene) mRNAs. MDA-MB-231 cells (1.2 × 10^5 cells/well) were seeded into a 12-well plate and incubated at 37 °C with 5% CO2 for 24 h. These cells were treated with indicated compounds (YL2, adamantane, ND1-YL2, or YL2-HyT6) for 18 h in Opti-MEM medium. After cells were washed with cold DPBS, mRNAs were isolated from these cells using an AccuPrep Universal RNA extraction kit (Bioneer, Daejeon, Korea). Then 1.5 µg of mRNAs were reverse-transcribed using AccuPower RocketScript Cycle RT PreMix (Bioneer) to generate complementary DNAs. RT-qPCR for CSF-1, E-cadherin, and 18S was performed with a StepOnePlus Real-Time PCR System (Applied Biosystems, Waltham, MA, USA) and SYBR Green mix (Applied Biosystems) according to the manufacturer’s instructions with gene-specific primers (Table 1).

The test system of data set [2] is CSF-1 mRNA in MDA-MB-231 cells. Nature of the data set: RT-qPCR of CSF-1 mRNA. The note with it: 18 h, RT-qPCR normalized to 18S. Type of data set: cell-based, human. As to the method:
as §1

The test system of data set [3] is MDA-MB-231 cells. The experiment in a line: Gap closure migration (wound healing) assay. The note with it: 20 µM, 72 h. Type of data set: cell-based, human. The procedure:
MDA-MB-231 cells (2.8 × 10^4 cells/well) were seeded into Culture-Insert 2 wells (ibidi, 80209) placed in a 35 mm culture dish. After incubation at 37 °C with 5% CO2 for 24 h, Culture-Insert 2 wells were carefully removed from the culture dish with a sterilized tweezer. These cells were then treated with indicated compounds (YL2, adamantane, ND1-YL2, or YL2-HyT6) in Opti-MEM medium for 72 h. Cell images were obtained with a culture microscope (Olympus, Tokyo, Japan, CKX41). The cell-free area of the image was quantified with ImageJ software (NIH, Bethesda, MD, USA). The relative gap-closure area was calculated using the following equation: […] where A was the cell-free area. (2) Gap−Closure %=At=0 h−At=72 h/At=0 h×100

The target in data set [4] is T1, PAS-B domain of human SRC-1 (residues 257–385) (Homo sapiens, UniProt Q15788).
T1 construct: PAS-B domain of human SRC-1 (residues 257–385); His6; made in house; host or cells: Rosetta E. coli
T1 sequence (Q15788 257-385): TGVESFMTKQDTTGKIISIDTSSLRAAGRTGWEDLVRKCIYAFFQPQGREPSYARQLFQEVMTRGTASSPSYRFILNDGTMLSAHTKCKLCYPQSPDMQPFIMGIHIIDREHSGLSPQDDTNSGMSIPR
The experiment in a line: Competitive fluorescence polarization (FP) assay, fluorescein-labeled STAT-6 peptide binding to SRC-1. To be noted: 100 nM fluorescein-labeled 15-mer STAT-6 peptide, 1 μM PAS-B domain of SRC-1, HEPES pH 7.4, SD from three independent experiments. As to the method: A plasmid expressing the PAS-B domain of human SRC-1 (residues 257–385) tagged with His6 was provided by John A. Robinson (University of Zürich at Switzerland). It was transformed into Rosetta E. coli cells. SRC-1 protein purification was performed as described previously.
After incubating 100 nM of fluorescein-labeled 15-mer STAT-6 peptide with 1 μM of PAS-B domain of SRC-1 in a binding buffer (50 mM HEPES pH 7.4, 150 mM NaCl, 3.4 mM EDTA, and 0.01% Tween 20) in a black Greiner 384-well plate for 30 min, indicated concentrations of YL2 and YL2-HyT1 through YL2-HyT6 were added to each well. After incubation for another 1.5 h, fluorescence polarization was measured on a Tecan Infinite F200 Pro microplate reader (excitation wavelength: 485 nm, emission wavelength: 535 nm). The Ki values of the compounds in the competition assay were determined using the following equation [43]. (1) Ki=[I]50/[L]50/KD+[P]0/KD+1 where [I]50 is the concentration of the free inhibitor at 50% inhibition, KD is the dissociation constant of the protein–ligand complex, [L]50 is the concentration of the free labeled ligand at 50% inhibition, and [P]0 is the concentration of the free protein at 0% inhibition.

Data set [5] deals with MDA-MB-231 cells. Nature of the data set: Matrigel transwell invasion assay. Type of data set: cell-based, human. To be noted: Matrigel chambers, 24 h. As to the method:
Matrigel invasion chambers (Corning 354480) were placed in 24-well plates and rehydrated with FBS-free DMEM medium at 37 °C in a CO2 incubator for 2 h. After removing the medium, 4 × 10^4 cells of MDA-MB-231 were seeded into Matrigel invasion chambers and control chambers (Corning, 354578) with 125 µL of Opti-MEM medium. Then another 125 µL of each compound (YL2, adamantane, ND1-YL2, or YL2-HyT6) in Opti-MEM medium was added to each chamber. The bottom of the well was filled with 500 µL of DMEM medium containing 10% FBS 1% PS. The chambers were then incubated at 37 °C with 5% CO2 for 24 h. After removing the medium, the chambers were washed with cold PBS. Then noninvading cells on the upper surface of the membrane were removed by scrubbing with a cotton swab. Cells on the bottom side of the membrane were fixed with 500 µL of 4% formaldehyde for 10 min at rt. After washing with PBS, the bottom side of the chamber was stained with 500 µL of Hoechst 33342 (5 µg/mL) for 5 min at 37 °C in the CO2 incubator. […] The percent invasion (% invasion) of each sample was determined with the following equation:(3) % Invasion=Mean # of cells invading through Matrigel chamber membrane/Mean # of cells migrating through control chamber membrane×100

Data set [6] is described as follows: Circular dichroism (CD), calculated helicity. Type of data set: physicochemical. To be noted: 50 μM peptide in 30% PBS (pH 7.4) and 70% acetonitrile, calculated from CD spectra. As to the method:
Lyophilized compounds (YL2 and YL2-HyT1 through YL2-HyT6) were dissolved in 30% PBS (pH 7.4) and 70% acetonitrile solution to a final concentration of 50 μM. CD spectra were measured with a Jasco J-815 CD spectropolarimeter using a quartz cuvette (2 mm path length). These spectra were averages of five successive accumulations with a scan rate of 100 nm/min. Raw data were converted in terms of per-residue molar ellipticity (deg·cm^2·dmol^−1·residue^−1) as calculated per mole of amide groups present and normalized by the molar concentration of peptides. Smoothing and correction of background spectra were performed with Origin Pro 8.0 (OriginLab Corporation, Northampton, MA, USA). Then α-helical propensities of YL2 and YL2-HyT1 through YL2-HyT6 were calculated as previously reported.

Regarding `CC(C)C[C@H](NC(=O)CCOCCOCCOCCNC(=O)CNC12CC3CC(CC(C3)C1)C2)C(=O)N[C@@H](CC(C)C)C(=O)N1CCC[C@H]1C(=O)N1CCC[C@H]1C(=O)N[C@H](C(=O)N[C@@H](CCC(=O)O)C(=O)N[C@@H](CCC(N)=O)C(=O)N[C@@H](CC(=O)O)C(=O)N[C@@H](CC(C)C)C(=O)N[C@@]1(C)CCC/C=C\CCC[C@@](C)(C(=O)N[C@@H](Cc2ccc(O)cc2)C(N)=O)NC(=O)[C@H](CC2CCCCC2)NC(=O)[C@H](CC(C)C)NC(=O)[C@H](CCCCN)NC1=O)[C@@H](C)O` [YL2-HyT6] (H-[N(1-adamantyl)Gly][PEG3]LLPPTEQDL[S5]KL[Cha][S5]Y-NH2; staple (Z) 12-16; C-terminus assumed), the “E-cadherin mRNA expression level” value in data set [1] is on record as “increase in E-cadherin”. For the same compound, the “CSF-1 mRNA expression level” value in data set [2] is “dose-dependent decrease in CSF-1”. Further, in the data set on MDA-MB-231 cells [3], the “Wound gap closure (cell migration)” value is recorded as “significantly inhibited gap closing”. Moreover, in data set [4], the Ki came to 237 nM. Further, the Cell invasion entry with MDA-MB-231 cells [5] is given as “remarkably decreased the invasion”. Besides, the “Helicity (%)” value in data set [6] was 32.6%.
